Patent US10272102B2, “Hydroxyalkyl starch for the treatment of hematological neoplasms” (FRESENIUS KABI DEUTSCHLAND GMBH, priority 2013, dated 2019)

Legend:
CCRF-SB = test: Prestoblue fluorescence cell viability assay, CCRF-SB; assay type: cell-based; details: CCRF-SB (ALL), 72 h incubation
Procedure: (§1) The objective of this study was to investigate potential effects of hydroxyethyl starch (“HES 130/0.4”) on cell viability of different leukemia cell lines. The 50% inhibition concentration (IC50) was determined in 28 different leukemia cell lines using the commercially available “Prestoblue fluorescence cell viability assay” after incubation with different “HES 130/0.4” concentrations for screening reasons. The concentration range of the tested HES was 100 mg/ml-[…].
(§2) PrestoBlue® reagent is a resazurin-based solution that functions as a cell viability indicator by using the reducing power of living cells to quantitatively measure the proliferation of cells. […] This change can be detected using fluorescence or absorbance measurements (see e.g. Int J Microbiol. 2013; 2013: 420601; published online Apr. 4, 2013 doi: 10.1155/2013/420601 PMCID PMC3638707). […]
(§3) Cells were harvested during the logarithmic growth period and counted using the commercially available cell counting device Countstar. […]
(§4) The test plate was incubated for 72 h in a humidified incubator at 37° C. with 5% CO2, and then measured by means of PrestoBlue assay. […] The plate was then incubated at room temperature for 30 minutes until fluorescence (T0) could be recorded using EnVision Multi Label Reader (Excitation: 540-570 nm/Emission: 580-610 nm). […]

Jurkat = test: Prestoblue fluorescence cell viability assay, Jurkat; assay type: cell-based; details: Jurkat (ALL), 72 h incubation
Procedure: as §1, §2, §3, §4

MHH-CALL-2 = test: Prestoblue fluorescence cell viability assay, MHH-CALL-2; assay type: cell-based; details: MHH-CALL-2 (ALL), 72 h incubation
Procedure: as §1, §2, §3, §4

Molt-4 = test: Prestoblue fluorescence cell viability assay, Molt-4; assay type: cell-based; details: Molt-4 (ALL), 72 h incubation
Procedure: as §1, §2, §3, §4

MUTZ-5 = test: Prestoblue fluorescence cell viability assay, MUTZ-5; assay type: cell-based; details: MUTZ-5 (ALL), 72 h incubation
Procedure: as §1, §2, §3, §4

NALM 6 = test: Prestoblue fluorescence cell viability assay, NALM 6; assay type: cell-based; details: NALM 6 (ALL), 72 h incubation
Procedure: as §1, §2, §3, §4

PEER IE6 = test: Prestoblue fluorescence cell viability assay, PEER IE6; assay type: cell-based; details: PEER IE6 (ALL), 72 h incubation
Procedure: as §1, §2, §3, §4

RS4;11 = test: Prestoblue fluorescence cell viability assay, RS4;11; assay type: cell-based; details: RS4;11 (ALL), 72 h incubation
Procedure: as §1, §2, §3, §4

SUP-B15 = test: Prestoblue fluorescence cell viability assay, SUP-B15; assay type: cell-based; details: SUP-B15 (ALL), 72 h incubation
Procedure: as §1, §2, §3, §4

HL-60 = test: Prestoblue fluorescence cell viability assay, HL-60; assay type: cell-based; details: HL-60 (AML), 72 h incubation
Procedure: as §1, §2, §3, §4

Kasumi-1 = test: Prestoblue fluorescence cell viability assay, Kasumi-1; assay type: cell-based; details: Kasumi-1 (AML), 72 h incubation
Procedure: as §1, §2, §3, §4

ML-2 = test: Prestoblue fluorescence cell viability assay, ML-2; assay type: cell-based; details: ML-2 (AML), 72 h incubation
Procedure: as §1, §2, §3, §4

MOLM-13 = test: Prestoblue fluorescence cell viability assay, MOLM-13; assay type: cell-based; details: MOLM-13 (AML), 72 h incubation
Procedure: as §1, §2, §3, §4

MOLM-16 = test: Prestoblue fluorescence cell viability assay, MOLM-16; assay type: cell-based; details: MOLM-16 (AML), 72 h incubation
Procedure: as §1, §2, §3, §4

MV-4-11 = test: Prestoblue fluorescence cell viability assay, MV-4-11; assay type: cell-based; details: MV-4-11 (AML), 72 h incubation
Procedure: as §1, §2, §3, §4

NB4 = test: Prestoblue fluorescence cell viability assay, NB4; assay type: cell-based; details: NB4 (AML), 72 h incubation
Procedure: as §1, §2, §3, §4

THP-1 = test: Prestoblue fluorescence cell viability assay, THP-1; assay type: cell-based; details: THP-1 (AML), 72 h incubation
Procedure: as §1, §2, §3, §4

Reh = test: Prestoblue fluorescence cell viability assay, Reh; assay type: cell-based; details: 72 h incubation
Procedure: as §1, §2, §3, §4

TF-1 = test: Prestoblue fluorescence cell viability assay, TF-1; assay type: cell-based; details: TF-1 (AML), 72 h incubation
Procedure: as §1, §2, §3, §4

EHEB = test: Prestoblue fluorescence cell viability assay, EHEB; assay type: cell-based; details: EHEB (CLL), 72 h incubation
Procedure: as §1, §2, §3, §4

JVM-13 = test: Prestoblue fluorescence cell viability assay, JVM-13; assay type: cell-based; details: JVM-13 (CLL), 72 h incubation
Procedure: as §1, §2, §3, §4

JVM-2 = test: Prestoblue fluorescence cell viability assay, JVM-2; assay type: cell-based; details: JVM-2 (CLL), 72 h incubation
Procedure: as §1, §2, §3, §4

JVM-3 = test: Prestoblue fluorescence cell viability assay, JVM-3; assay type: cell-based; details: JVM-3 (CLL), 72 h incubation
Procedure: as §1, §2, §3, §4

MEC-1 = test: Prestoblue fluorescence cell viability assay, MEC-1; assay type: cell-based; details: MEC-1 (CLL), 72 h incubation
Procedure: as §1, §2, §3, §4

MEC-2 = test: Prestoblue fluorescence cell viability assay, MEC-2; assay type: cell-based; details: MEC-2 (CLL), 72 h incubation
Procedure: as §1, §2, §3, §4

K-562 = test: Prestoblue fluorescence cell viability assay, K-562; assay type: cell-based; details: K-562 (CML), 72 h incubation
Procedure: as §1, §2, §3, §4

KU812 = test: Prestoblue fluorescence cell viability assay, KU812; assay type: cell-based; details: KU812 (CML), 72 h incubation
Procedure: as §1, §2, §3, §4

MEG-01 = test: Prestoblue fluorescence cell viability assay, MEG-01; assay type: cell-based; details: MEG-01 (CML), 72 h incubation
Procedure: as §1, §2, §3, §4

[1] = tested on: human acute myelogeneous leukemia EOL-1 cell line; test: s.c. EOL-1 xenotransplantation model, tumor growth; assay type: in vivo; details: EOL-1 tumor-bearing male NOD/SCID mice; 75 mg/kg i.p. single dose (day 0)
Procedure: For calculation of the relative tumor volume (RTV) the tumor volumes at each measurement day were related to the day of first treatment. At each measurement day the median and mean tumor volumes per group and also the treated to control (T/C) values in percent were calculated.

SMILES: N.N.[Cl][Pt][Cl] [Cisplatin, cisplatin]
- IC50 (CCRF-SB): 100 µg/mL
- Max-inhibition (CCRF-SB): 100%
- IC50 (Jurkat): 200 µg/mL
- Max-inhibition (Jurkat): 100%
- IC50 (MHH-CALL-2): 140 µg/mL
- Max-inhibition (MHH-CALL-2): 100%
- IC50 (Molt-4): 150 µg/mL
- Max-inhibition (Molt-4): 100%
- IC50 (MUTZ-5): 190 µg/mL
- Max-inhibition (MUTZ-5): 100%
- IC50 (NALM 6): 240 µg/mL
- Max-inhibition (NALM 6): 100%
- IC50 (PEER IE6): 3730 µg/mL
- Max-inhibition (PEER IE6): 100%
- IC50 (RS4;11): 50 µg/mL
- Max-inhibition (RS4;11): 100%
- IC50 (SUP-B15): 450 µg/mL
- Max-inhibition (SUP-B15): 100%
- IC50 (HL-60): 450 µg/mL
- Max-inhibition (HL-60): 100%
- IC50 (Kasumi-1): 780 µg/mL
- Max-inhibition (Kasumi-1): 100%
- IC50 (ML-2): 350 µg/mL
- Max-inhibition (ML-2): 100%
- IC50 (MOLM-13): 340 µg/mL
- Max-inhibition (MOLM-13): 100%
- IC50 (MOLM-16): 650 µg/mL
- Max-inhibition (MOLM-16): 100%
- IC50 (MV-4-11): 160 µg/mL
- Max-inhibition (MV-4-11): 100%
- IC50 (NB4): 140 µg/mL
- Max-inhibition (NB4): 100%
- IC50 (THP-1): 640 µg/mL
- Max-inhibition (THP-1): 100%
- Max-inhibition (Reh; Reh (AML)): 100%
- IC50 (Reh; Reh (B-ALL)): 170 µg/mL
- IC50 (TF-1): 1720 µg/mL
- Max-inhibition (TF-1): 100%
- IC50 (EHEB): 490 µg/mL
- Max-inhibition (EHEB): 100%
- IC50 (JVM-13): 180 µg/mL
- Max-inhibition (JVM-13): 100%
- IC50 (JVM-2): 180 µg/mL
- Max-inhibition (JVM-2): 100%
- IC50 (JVM-3): 270 µg/mL
- Max-inhibition (JVM-3): 100%
- IC50 (MEC-1): 1150 µg/mL
- Max-inhibition (MEC-1): 100%
- IC50 (MEC-2): 1670 µg/mL
- Max-inhibition (MEC-2): 100%
- IC50 (K-562): 1290 µg/mL
- Max-inhibition (K-562): 100%
- IC50 (KU812): 250 µg/mL
- Max-inhibition (KU812): 100%
- IC50 (MEG-01): 830 µg/mL
- Max-inhibition (MEG-01): 100%

SMILES: O=P1(N(CCCl)CCCl)NCCCO1 (stereo not drawn) [Cyclophosphamide]
- inhibition of tumor growth [1]: significant inhibition
